{
  "source": "patent US20030161893A1",
  "about": "“PTPase inhibitors and methods of using the same” (priority 2001, published 2003)",
  "key": {"[1]": {"system": "HEY cells", "test": "Cell growth assay (MTT), HEY ovarian cancer cells", "assay_type": "cell-based, human", "conditions": "100 μg/ml, day 6", "protocol": "NIH3T3 (Yi, et al., Blood 85, 87 (1995)), WM9 (Forsberg, et al., Proc. Nat. Acad Sci. USA 90, 393 (1993)), DU145 (Mickey, et al., Cancer Res. 37, 4049 (1977)), LoVo (Drewinko, et al., Cancer Res. 36, 467 (1976)), HEY (Buick, et al., Cancer Res. 45, 3668 (1985)), U251 (Yoshida, et al., Cancer 50, 410 (1982)), A549 (Giard, et al., J. Natl. Cancer Inst. 51, 1417 (1973)) and SK-N-SH (Helson, et al., Cancer Res. 35, 2594 (1975)) cell lines have been described and were cultured in RPMI 1640 supplemented with 10% fetal calf serum (FCS). For measurement of sodium stibogluconate effects on cell growth in vitro, cells were cultured in the absence (−) or presence (+) of various amounts of sodium stibogluconate for 6 days with viable cells quantified by MTT assays (Mosmann, J. Imunol. Methods 65, 55 (1983)). Percentages of growth inhibition by sodium stibogluconate were calculated (+/−×%)."}, "[2]": {"system": "Stat1", "test": "IFN-alpha-induced Stat1 tyrosine phosphorylation, DU145 cells", "assay_type": "cell-based, human", "conditions": "DU145, 5 hours post-stimulation", "protocol": "For induction of Stat1 tyrosine phosphorylation by IFN-alpha in the absence or presence of sodium stibogluconate, cells grown in 10% FCS RPMI 1640 medium at 37° C. were stimulated with IFN-alpha (50 u/ml) for various time points and treated with or without sodium stibogluconate for 5 minutes prior to termination by lysing the cells in cold lysis buffer (1% NP-40; 50 mM Tris, pH 7.4; 100 mM NaCl; 1 mM EDTA, 10% glycerol, 10 mM sodium molybdic acid and 4 mM AEBSF).\nCell lysates were prepared by lysing cells in cold lysis buffer for 30 min and cleared by centrifuging at 14,000 rpm at 4° C. for 15 min. For SDS-PAGE, cell lysates were mixed with equal volume of 2×SDS-PAGE sample buffer, heated at 90° C. for 5 min and separated in 10% SDS-PAGE gels. Cellular proteins in SDS-PAGE gels were transferred to nitrocellulose membrane (Schleicher & Schuell, Keene, N.H.), blocked in 5% milk, probed with antibodies and detected by using an enhanced chemiluminescence kit (ECL, Amersham, Arlington Heights, Ill.)."}, "[3]": {"molecular_target": "T1, PRL-3 (Homo sapiens, UniProt O75365)", "T1 construct": "cDNAs of human PRL-1, PRL-2 and PRL-3 coding region were derived by RT-PCR from H9 cells; made in house; host or cells: DH5a bacteria (E. coli)", "T1 sequence (O75365 whole entry, the tested form may be a part)": "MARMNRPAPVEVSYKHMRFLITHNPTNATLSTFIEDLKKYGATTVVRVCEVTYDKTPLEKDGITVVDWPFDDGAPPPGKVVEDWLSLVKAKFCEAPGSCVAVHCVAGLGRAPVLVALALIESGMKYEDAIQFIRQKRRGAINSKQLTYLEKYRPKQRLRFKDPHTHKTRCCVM", "test": "In vitro PTPase assay, recombinant PRL-3", "assay_type": "biochemical", "from_the_text": "Sodium stibogluconate, suramin, sodium orth ovanadate and GST fusion protein of SHP-1 have been described previously (Pathak et al., J. Imumol. 167, 3391 (2001)). Meglumine antimonate was obtained from Aventis. cDNAs of human PRL-1, PRL-2 and PRL-3 coding region were derived by RT-PCR from H9 cells (Safai, et al., Lancet 1, 1438 (1984)) and inserted in frame into the pGEX vector. cDNA of PRL-1R86 was generated by recombinant DNA technique using PRL-1 cDNA as template following established procedures (Jiao, et al., Mol. Cell. Biol. 16, 6985 (1996)). GST fusion proteins of the PRL phosphatases were prepared from DH5a bacteria transformed with the pGEX fusion protein constructs as described previously (Yi, et al., Mol. Cell. Biol. 12, 836 (1992)). cDNAs encoding the PRLs tagged at the N-termini with the Flag epitope (Castrucci, et al., J. Virol. 66, 4647 (1992)) were generated via recombinant DNA technique, sequenced to confirm their identities and cloned into the pBabepuro vector (Yang, et al., Blood 91, 3746 (1998)). Anti-Flag monoclonal antibody (M2, Sigma) was purchased from a commercial source. A synthetic phosphotyrosine peptide (Arg-Arg-Leu-Ile-Glu-Asp-Ala-Gle-Tyr-Ala-Ala-Arg-Gly (SEQ ID NO: 3), wherein the tyrosine is phosphorylated; UBI) and DiFMUP (6, 8-difluoro-4-methylumbelliferyl phosphate, Molecular Probes) were purchased as substrates for PTPase assays.\nIn vitro PTPase assays were used to determine the effects of compounds on recombinant PTPases, following established procedures using a synthetic phosphotyrosine peptide or DiFMUP as the substrate (Pathak et al., J. Imumol. 167, 3391 (2001)). Briefly, individual PTPases (0.1 μg/reaction) in 50 μL of PTPase buffer (50 mM Tris, pH 7.4) were incubated at 22° C. for 10 minutes or as indicated in the absence or presence of inhibitory compounds. Substrates (0.2 mM phosphotyrosine peptide) were then added and allowed to react at 22° C. for 18 hrs. PTPase activity of individual reactions was measured by adding 100 μL of malachite green solution (UBI) and then quantifying the amounts of free phosphate cleaved by the PTPase from the peptide substrate by spectrometry (OD660 nm). PTPase assays using DiFMUP as a substrate were conducted following a previously described procedure (Matter, et al., Biochem. Biophys. Res. Comm. 283, 1061 (2001)). Relative PTPase activities were calculated based on the formula: (PTPase activity in the presence of an inhibitory compound/PTPase activity in the absence of the compound)×100%. To assess the reversibility of PTPase inhibition, GST fusion proteins of the PTPases bound on glutathione beads (Pharmacia) were pre-incubated with cold Tris buffer (50 mM Tris, pH 7.0) or Tris buffer containing the inhibitor at 4° C. for 30 minutes. The beads were then washed three times in cold Tris buffer or not washed prior to subjecting to in vitro PTPase assays."}, "[4]": {"system": "DS cells", "test": "Cell proliferation assay (MTT), DS lymphoma cells", "assay_type": "cell-based, human", "conditions": "day 3; IFN-alpha 1,000 u/ml", "protocol": "For cell proliferation assays, cells were grown in 10% FCS culture medium containing various amounts of IFNs and/or sodium stibogluconate in 96 well plates and cultured at 37° C. for 3 or 6 days as indicated. The numbers of viable cells in proliferation assays were determined by MTT assays as described in Phatak et al., J. Immunol. 167, 3391 (2001)."}, "[5]": {"conditions": "cited from earlier work"}},
  "data": [
    {"smiles": "O.O.O.O.O.O.O.O.O.O=C([O-])[C@@H]1[O][Sb]2([O-])([O][Sb]34([OH])[O][C@H]([C@H](O)CO)[C@H]([O]3)[C@H](C(=O)[O-])[O]4)[O][C@H]([C@H](O)CO)[C@@H]1[O]2.[Na+].[Na+].[Na+]", "note": "[sodium stibogluconate]", "values": [
      {"measurement": "cell killing, HEY", "setting": "[1]", "result": "near-complete cell killing"},
      {"measurement": "IFN-alpha-induced Stat1 tyrosine phosphorylation", "setting": "[2]", "result": "Enhanced"},
      {"measurement": "inactivation of PRL-3 with prolonged pre-incubation", "setting": "[3]; 10 μg/ml, pre-incubation 30 or 60 minutes", "result": "nearly complete inactivation"},
      {"measurement": "inhibition of PRL-3 with DiFMUP substrate", "setting": "[3]; DiFMUP, comparable conditions", "result": "also detected"},
      {"measurement": "reversibility of PRL-3 inhibition by washing", "setting": "[3]; PRL-3 bound to glutathione beads", "result": "not relieved by a washing process"},
      {"measurement": "activity against DS cells", "setting": "[4]", "result": "modest activity"},
      {"measurement": "serum levels at standard dosage for leishmaniasis treatment", "setting": "[5]; 10-20 mg/kg/day", "result": "≥ 10000", "unit": "ng/mL"},
      {"measurement": "clinical side effects at higher dosages", "setting": "[5]; human, in vivo", "result": "reversible nonspecific ECG changes and renal defects"},
      {"measurement": "clinical tolerability at therapeutic dosages", "setting": "[5]; human, in vivo", "result": "well tolerated"}
    ]}
  ]
}
